From patent US12679837B2, “Aminopyrimidine compound as CDK2/4/6 triple inhibitor” (CISEN PHARMACEUTICAL CO., LTD, priority 2019, dated 2026)

Experiments:
CDK2/CyclinE1 = target: T1, CDK2/CyclinE1 (Homo sapiens, UniProt P24941); test: CDK2/CyclinE1 kinase activity test (ADP-Glo); type: biochemical; settings: 150 μM ATP, 25° C., 60 minutes; read-out: Enzyme activity data (IC50) CDK2/CyclinE1
T1 construct: purchased Promega
Protocol: Nivo Multilabel Analyzer (PerkinElmer).
(§1) Experimental method: Kinase buffer dilution enzyme in the kit, substrate, adenosine triphosphate and inhibitor were used. The compounds to be tested were diluted 5-fold to the 8th concentration with a row gun, that is, from 50 μM to 0.65 nM, the concentration of DMSO was 5%, and a double-replicate well experiment was set up. […] The reaction system was placed at 25° C. and reacted for 60 minutes. After the reaction was complete, 5 μL of ADP-Glo reagent was added to each well, and the reaction was continued at 25° C. for 40 minutes. At the end of the reaction, 10 μL of kinase detection reagent was added to each well. After the reaction was continued at 25° C. for 30 minutes, the chemiluminescence was read by a multi-label analyzer with an integration time of 0.5 seconds.
Using the equation (Sample−Min)/(Max−Min)×100% to convert the original data into inhibition rate, the IC50 value can be obtained by curve fitting with four parameters (obtained by the mode of log(inhibitor) vs. response—Variable slope in GraphPad Prism). Table 1 provides the enzymatic inhibitory activities of the compounds of the present invention on CDK2/CyclinA2, CDK2/CyclinE1, CDK4/CyclinD1, CDK6/CyclinD1, CDK9/CyclinT1.

MDA-MB-468 cells = test: MDA-MB-468 cell activity test (CellTiter-Glo); type: cell-based
Protocol: Experimental materials: L15 medium, fetal bovine serum, penicillin/streptomycin antibiotics were purchased from Vicente. CellTiter-Glo (chemiluminescence detection reagent for cell viability) reagent was purchased from Promega. The MDA-MB-468 cell line was purchased from Cobioer Biosciences Co., Ltd. Nivo Multilabel Analyzer (PerkinElmer).
Experimental method: MDA-MB-468 cells were seeded in a white 96-well plate, 80 μL of cell suspension per well, which contained 1000 MDA-MB-468 cells. The cell plate was incubated overnight in a carbon dioxide incubator. The compounds to be tested were diluted 5-fold to the 9th concentration with a row gun, that is, from 10 mM to 25.6 nM, and a double-replicate well experiment was set up. 78 μL of medium was added to the middle plate, and then transferred 2 μL per well of the gradient diluted compound to the middle plate according to the corresponding position, mixed well and transferred 20 μL per well to the cell plate. The concentration of compound transferred to the cell plate ranged from 50 μM to 0.128 nM. The cell plate was incubated in a carbon dioxide incubator for 7 days. Another cell plate was prepared, and the signal value was read as the maximum value (Max value in the equation below) on the day of drug addition to participate in data analysis. 25 μL of chemiluminescence detection reagent for cell viability was added to each well of the cell plate, and incubated at room temperature for 10 minutes to stabilize the luminescence signal. A multi-label analyzer was used for reading.
Data analysis: Using the equation (Sample−Min)/(Max−Min)×100% to convert the original data into inhibition rate, the IC50 value can be obtained by curve fitting with four parameters (obtained by the mode of log(inhibitor) vs. response—Variable slope in GraphPad Prism).

[1] = Pharmacokinetic evaluation in female Balb/c mice; type: in vivo; settings: mouse, plasma
Protocol: Healthy adult female Balb/c mice used in this study were purchased from Shanghai Lingchang Biotechnology Co., Ltd.
1.11 mg of the compound to be tested was accurately weighed, 109.8 μL of DMSO was added and vortexed for 1 minute, 109.8 μL of solutol was added and vortexed for 1 minute to obtain a clear solution, then 878 μL of water was added and vortexed for 1 minute to obtain the final solution with a final concentration of 1 mg/mL, the dosing vehicle was 10% DMSO+10% solutol+80% water. The solution in the intravenous injection group was filtered with a 2 μm filter before administration.
1.61 mg of the compound to be tested was accurately weighed, 796 μL of 1% HPMC was added, sonicated at 45° C. for 20 minutes, and stirred for 15 minutes to obtain a homogeneous suspension solution with a final concentration of 2 mg/mL. The dosing vehicle was 1% HPMC.
4 female Balb/c mice were divided into 2 groups according to 2 mice in each group. The first group was given 2 mg/kg of the compound to be tested by intravenous injection; the second group was given 10 mg/kg of the compound to be tested by gavage.
The blood was collected from two animals at each time point by continuous blood collection. 30 μL of whole blood was collected before administration and at 0.0833, 0.25, 0.5, 1, 2 (only gavage group), 4, 6, 8 (only intravenous group), and 24 hours after administration, respectively. The whole blood was placed in an anticoagulant tube, centrifuged at 3200 g for 10 minutes at 4° C., the plasma was prepared and stored at −80° C. Drug concentration in the plasma was determined by LC/MS-MS.

CDK9/CyclinT1 = target: T2, CDK9/CyclinT1 (Homo sapiens, UniProt P50750); test: CDK9/CyclinT1 kinase activity assay (ADP-Glo); type: biochemical; settings: 100 μM ATP, 25° C., 60 minutes; read-out: Enzyme activity data (IC50) CDK9/CyclinT1
T2 construct: purchased Carna
T2 sequence (P50750 whole entry): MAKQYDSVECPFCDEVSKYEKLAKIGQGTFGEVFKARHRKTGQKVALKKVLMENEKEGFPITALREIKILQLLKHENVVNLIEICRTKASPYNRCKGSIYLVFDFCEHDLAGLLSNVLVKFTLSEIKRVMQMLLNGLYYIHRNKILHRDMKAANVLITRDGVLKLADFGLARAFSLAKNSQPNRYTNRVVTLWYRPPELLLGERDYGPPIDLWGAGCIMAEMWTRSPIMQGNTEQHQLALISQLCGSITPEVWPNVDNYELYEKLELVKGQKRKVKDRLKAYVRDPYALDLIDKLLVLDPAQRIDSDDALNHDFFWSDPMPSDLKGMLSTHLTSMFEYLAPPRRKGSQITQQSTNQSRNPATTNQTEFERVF
T2 sequence (O60563 whole entry partner): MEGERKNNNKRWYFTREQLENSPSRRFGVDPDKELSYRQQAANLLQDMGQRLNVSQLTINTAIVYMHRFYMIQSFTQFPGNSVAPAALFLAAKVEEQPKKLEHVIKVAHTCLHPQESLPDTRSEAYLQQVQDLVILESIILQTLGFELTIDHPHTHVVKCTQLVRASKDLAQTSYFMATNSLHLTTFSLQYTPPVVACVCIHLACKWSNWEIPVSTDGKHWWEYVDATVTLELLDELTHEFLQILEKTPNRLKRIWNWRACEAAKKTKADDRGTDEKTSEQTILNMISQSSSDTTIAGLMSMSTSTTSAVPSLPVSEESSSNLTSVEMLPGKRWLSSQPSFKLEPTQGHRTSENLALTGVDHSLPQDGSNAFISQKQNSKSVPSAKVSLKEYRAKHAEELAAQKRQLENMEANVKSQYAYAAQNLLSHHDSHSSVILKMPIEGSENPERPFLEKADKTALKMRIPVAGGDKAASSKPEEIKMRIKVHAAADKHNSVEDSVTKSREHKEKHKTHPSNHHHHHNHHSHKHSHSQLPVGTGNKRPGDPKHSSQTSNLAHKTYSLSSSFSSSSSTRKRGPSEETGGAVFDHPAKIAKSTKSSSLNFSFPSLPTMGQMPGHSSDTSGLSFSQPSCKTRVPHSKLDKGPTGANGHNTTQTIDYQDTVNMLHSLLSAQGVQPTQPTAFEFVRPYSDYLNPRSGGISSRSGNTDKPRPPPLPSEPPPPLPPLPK
Protocol: Experimental materials: CDK9/CyclinT1 kinase was purchased from Carna, the ADP-Glo detection kit was purchased from Promega, the PKDTide substrate and kinase reaction buffer were purchased from Signalchem. Nivo Multilabel Analyzer (PerkinElmer).
as §1, with “used.” for “used. The compounds to be tested were diluted 5-fold to the 8th concentration with a row gun, that is, from 50 μM to 0.65 nM, the concentration of DMSO was 5%, and a double-replicate well experiment was set up.”
Table 1 provides the enzymatic inhibitory activities of the compounds of the present invention on CDK2/CyclinA2, CDK2/CyclinE1, CDK4/CyclinD1, CDK6/CyclinD1, CDK9/CyclinT1.

In the case of `C[C@@]1(O)CCC[C@H]1N1C(=O)CCc2cnc(NC3CCN(S(C)(=O)=O)CC3)nc21` [Compound 1A], the IC50 (CDK2/CyclinE1) is reported as 1.19 nM, the IC50 (MDA-MB-468 cells; Homo sapiens, 168 h, MDA-MB-468 cells (Rb-negative), 7 days, read-out: Antiproliferative activity (IC50) MDA-MB-468) is reported as 640 nM and the “Selectivity ratio(MDA-MB-468/HCC1806)” value (MDA-MB-468 cells; ratio of antiproliferative IC50, MDA-MB-468/HCC1806) is reported as 4.1. For the same compound, the clearance ([1]; Intravenous Injection: 2 mg/kg, read-out: Clearance Rate Cl) was 36.9 mL/min/kg, the half-life ([1]; Intravenous Injection: 2 mg/kg, read-out: Half-Life T1/2 (converted)) was 16.8 min and the bioavailability ([1]; Oral Administration: 10 mg/kg, read-out: Oral Bioavailability F) was 31.4%. The AUC(0-t) ([1]; Oral Administration: 10 mg/kg, read-out: Oral Exposure AUC0-t) was 3.37 µM·h and the IC50 (CDK9/CyclinT1) was 110 nM.
